Measurements as given in the supplement of paper PMC10307832.

Key:
Assay in all cases: relative viability (nuclei count vs DMSO), 5 days (fraction); higher = more cells survive
ALW-II-49-7 + Dasatinib = compound: Cc1ccc(C(=O)Nc2cccc(C(F)(F)F)c2)cc1Nc1cncc(C(N)=O)c1 [ALW-II-49-7] + Cc1nc(Nc2ncc(C(=O)Nc3c(C)cccc3Cl)s2)cc(N2CCN(CCO)CC2)n1 [Dasatinib] (partner 0.075 µM)
In short: (§1)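 Lung cancer cell lines in 1536-well plates were dosed by pin tool the day after seeding, either with one drug alone or with a fixed anchor-drug dose plus five library-drug doses (not always all listed) in √10 steps. After 5 days, cells were fixed and their nuclei stained in one step (final 0.05% Triton X-100, 1% formaldehyde, 1 ug/ml Hoechst), then counted on 4× images. Relative viability is the nuclei count in treated wells divided by that in vehicle wells. Values are medians of duplicate plates.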

Dasatinib + Pemetrexed = compound: Cc1nc(Nc2ncc(C(=O)Nc3c(C)cccc3Cl)s2)cc(N2CCN(CCO)CC2)n1 [Dasatinib] + Nc1nc2[nH]cc(CCc3ccc(C(=O)N[C@@H](CCC(=O)O)C(=O)O)cc3)c2c(=O)[nH]1 [Pemetrexed] (partner 0.2 µM)
In short: as §1

XMD13-2 + Luminespib = compound: C1CC1C(=O)NC2=NNC3=C2C=CC(=C3)C4=CC(=CC=C4)C(=O)NC5CC5 [XMD13-2] + CCNC(=O)c1noc(-c2cc(C(C)C)c(O)cc2O)c1-c1ccc(CN2CCOCC2)cc1 [Luminespib] (partner 0.01 µM)
In short: as §1

XMD13-2 + Palbociclib = compound: C1CC1C(=O)NC2=NNC3=C2C=CC(=C3)C4=CC(=CC=C4)C(=O)NC5CC5 [XMD13-2] + CC(=O)c1c(C)c2cnc(Nc3ccc(N4CCNCC4)cn3)nc2n(C2CCCC2)c1=O [Palbociclib] (partner 0.5 µM)
In short: as §1

Row | Cell Line | relative viability (ALW-II-49-7 + Dasatinib; first compound 0.08 µM) | relative viability (ALW-II-49-7 + Dasatinib; first compound 0.253 µM) | relative viability (ALW-II-49-7 + Dasatinib; first compound 0.8 µM) | relative viability (ALW-II-49-7 + Dasatinib; first compound 2.53 µM) | relative viability (ALW-II-49-7 + Dasatinib; first compound 8 µM) | relative viability (Dasatinib + Pemetrexed; first compound 0.005 µM) | relative viability (Dasatinib + Pemetrexed; first compound 0.01581 µM) | relative viability (Dasatinib + Pemetrexed; first compound 0.05 µM) | relative viability (Dasatinib + Pemetrexed; first compound 0.1581 µM) | relative viability (Dasatinib + Pemetrexed; first compound 0.5 µM) | relative viability (XMD13-2 + Luminespib; first compound 0.05 µM) | relative viability (XMD13-2 + Luminespib; first compound 0.1581 µM) | relative viability (XMD13-2 + Luminespib; first compound 0.5 µM) | relative viability (XMD13-2 + Luminespib; first compound 1.581 µM) | relative viability (XMD13-2 + Luminespib; first compound 5 µM) | relative viability (XMD13-2 + Palbociclib; first compound 0.05 µM) | relative viability (XMD13-2 + Palbociclib; first compound 0.1581 µM) | relative viability (XMD13-2 + Palbociclib; first compound 0.5 µM) | relative viability (XMD13-2 + Palbociclib; first compound 1.581 µM) | relative viability (XMD13-2 + Palbociclib; first compound 5 µM)
1 | NCI-H3122 | 0.83 | 0.81 | 0.737 | 0.891 | 0.834 | 0.208 | 0.205 | 0.194 | 0.198 | 0.186 | 0.102 | 0.0949 | 0.106 | 0.105 | 0.0867 | 0.191 | 0.202 | 0.142 | 0.177 | 0.181
2 | PC-3 [JPC-3] | 0.827 | 0.916 | 0.929 | 0.951 | 0.854 | 1.22 | 1.1 | 1.08 | 0.717 | 0.474 | 0.681 | 0.661 | 0.64 | 0.776 | 0.782 | 0.558 | 0.508 | 0.571 |  | 0.532
3 | PC-14 | 0.202 | 0.3 | 0.242 | 0.227 | 0.192 | 0.146 | 0.121 | 0.108 | 0.119 | 0.124 | 0.133 | 0.192 | 0.118 | 0.151 | 0.154 | 0.597 | 0.526 | 0.517 | 0.586 | 0.568
4 | RERF-LC-KJ | 0.827 | 0.815 | 0.951 | 0.665 | 0.741 | 0.53 | 0.466 | 0.405 | 0.471 | 0.457 | 1.32 | 1.29 | 1.22 | 1.14 | 1.1 | 1.06 | 1.11 | 1.1 | 1.04 | 1.03
5 | SK-LU-1 | 0.17 | 0.207 | 0.206 | 0.175 | 0.197 | 0.864 | 0.617 | 0.467 | 0.306 | 0.282 | 0.217 | 0.239 | 0.227 | 0.194 | 0.211 | 0.42 | 0.393 | 0.38 | 0.378 | 0.319
6 | SK-MES-1 | 0.353 | 0.351 | 0.296 | 0.33 | 0.222 | 0.985 | 0.879 | 0.709 | 0.314 | 0.224 | 1.06 | 0.67 | 0.773 | 0.711 | 0.556 | 0.308 | 0.312 | 0.304 | 0.329 | 0.326
7 | SW 900 | 0.607 | 0.565 | 0.559 | 0.565 | 0.478 | 0.47 | 0.348 | 0.43 | 0.186 | 0.203 | 0.192 | 0.174 | 0.2 | 0.178 | 0.19 | 0.592 | 0.382 | 0.669 | 0.549 | 0.589
8 | SW 1573 | 0.473 | 0.399 | 0.568 | 0.514 | 0.304 | 0.889 |  | 0.742 | 0.607 | 0.548 | 0.276 | 0.239 | 0.308 | 0.188 | 0.213 | 0.442 | 0.366 | 0.717 | 0.371 | 0.287
